Measurements published in US8765707B2, “MicroRNA-140-5p as a tumor suppressor and sensitizing agent for chemotherapy” (University of Houston System, priority 2011, dated 2014).
Entries after “also recorded” stand apart in the source; their conditions may differ.

Tests used:
MYCN = MYCN induction in conditional MYCN3 cell line (QPCR); format: cell-based; conditions: 1 ug/ml doxorubicin
Experimental: In FIG. 1 using a conditional MYCN cells line MYCN3, neuroblastoma patients with high and low MYCN were simulated. […] Induced MYCN is functional as shown by alteration in cell cycle distribution 24 hours after exposure to doxorubicin. Chip-PCR results for E-boxes of two known MYCN target genes MIR17HG and MDM2 confirming the specificity of the immunoprecipitation and relative enrichment for MYCN target gene promoters.

[1] = tested on: CHLA255 neuroblastoma cell line; experiment: MTT proliferation assay in CHLA255 neuroblastoma cells; format: cell-based; conditions: CHLA255 stable cell line expressing microRNA with GFP, compared to control cells
Experimental: (§1) […] sequences (SEQ ID NOS: 3-4), which mimic miR-140-5p wildtype (SEQ ID NO: 1) and mutant miR-140-5p (SEQ ID NO: 2), were transfected into CHLA255 neuroblastoma cell line upper-GFP vector. Table 1 identifies the nucleotide sequences of the wildtype and mutant microRNAs and their mimics. The altered nucleotides in the mutant sequences are shown in bold.
(§2) The impact of these sequences on these cells was measured by increase in absorbance from the MTT assay (FIG. 2A) and the ability to form colonies on a soft agar plate in a clonogenicity assay (FIG. 2B). Stable cell line expression of microRNAs with GFP were compared to control cells. […] Colony formation assays were carried out in soft agar-representative wells showing colony growth at 10 days. Colonies were stained and counted by eye or by digital image analysis software.

[2] = tested on: CHLA255 neuroblastoma cell line; experiment: Soft agar colony formation (clonogenicity) assay; format: cell-based; conditions: CHLA255, colony growth at 10 days, triplicate experiments
Experimental: as §1, §2

[3] = tested on: CHLA-255 neuroblastoma tumors; experiment: In vivo orthotopic xenograft model of neuroblastoma; parameters: species or system mouse; conditions: tumors over-expressing miR-140-5p vs control CHLA-255; Kruskal-Wallis p<0.01; n=9
Description: FIG. 3 illustrates the impact of miR-140-5p on in vivo orthotopic xenograft model of neuroblastoma. *Kruskal-Wallis method p<0.01; mean±SEM; n=9 in miR-140-5p cohort, n=10 in all other cohorts. Using the contralateral kidney (*) for comparison the average tumor weight for each cohort+SEM.

Molecule | Increase in MYCN mRNA message level (MYCN) [fold] | Proliferation as measured by increase in absorbance from MTT assay [1] | Colony counts in soft agar [2] | Average tumor weight [3]
COc1cccc2c1C(=O)c1c(O)c3c(c(O)c1C2=O)C[C@@](O)(C(=O)CO)C[C@@H]3O[C@H]1C[C@H](N)[C@H](O)[C@H](C)O1 [doxorubicin] | 20 | – | – | –
miR-140-5p: SEQ ID NO: 1, CAGUGGUUUUACCCUAUGGUAG (listed as RNA, chemistry not given here) | – | consistently decrease the proliferation rates; also recorded: significantly decreases the proliferation | significantly decrease colonies | significantly smaller than control; also recorded: significantly suppresses in vivo tumor growth and burden
